Laboratory results from US20240277698A1, “METHODS OF USING ALDOSTERONE SYNTHASE INHIBITORS” (CINCOR PHARMA, INC., priority 2021, published 2024).

Test: MAD study: safety (adverse events, vital signs, ECG, laboratory values, body weight)
Type: in vivo, human
Details: for tolerability: once daily for 10 days
Method: (§1) Safety was assessed throughout the study based on AEs, physical examinations, weight measurements, electrocardiograms (ECGs), orthostatic vital sign assessments, and clinical laboratory evaluations. In order to thoroughly assess any potential effect of (R)-compound 1 on QT interval, continuous ECG recordings were also performed, starting approximately 1 hour before dosing, and continuing for approximately 24 hours after dosing on Days 1 and 10.
as §1, with “is” for “was”, “ECGs,” for “electrocardiograms (ECGs), orthostatic”, “sign (including orthostatic)” for “sign”, “performed” for “performed,”, “dosing” for “dosing,”, “10. If cardiodynamic analyses are undertaken, 12-lead ECGs will be extracted at predefined time points paired with PK samples.” for “10.”

[1] = 0.5 mg, normal salt diet, N = 9
[2] = 1.5 mg, normal salt diet, N = 9
[3] = 2.5 mg, normal salt diet, N = 6
[4] = all dose levels including placebo, treatment period
[5] = all subjects receiving (R)-compound 1

CCC(=O)N[C@@H]1CCCc2c(-c3ccc4c(c3)CCC(=O)N4C)cncc21 [(R)-Compound 1, (R)—N-(4-(1-methyl-2-oxo-1,2,3,4-tetrahydroquinolin-6-yl)-5,6,7,8-tetrahydroisoquinolin-8-yl)propionamide]
Any TEAE, % of subjects (0.5 mg NS, N = 9): (11.1) % | Any TEAE, number of subjects (0.5 mg NS, N = 9): 1 | Related TEAE, % of subjects (0.5 mg NS, N = 9): (11.1) % | Related TEAE, number of subjects (0.5 mg NS, N = 9): 1 | Subjects with any AE [1]: 1 (11.1) n (%) | Subjects with any TEAE [1]: 1 (11.1) n (%) | Subjects with any TEAE by maximum severity: Mild [1]: 1 (11.1) n (%) | Subjects with any TEAE by maximum severity: Moderate [1]: 0 (0.0) n (%) | Subjects with any TEAE by maximum severity: Severe [1]: 0 (0.0) n (%) | Subjects with any TEAE leading to death [1]: 0 (0.0) n (%) | Subjects with any TEAE leading to discontinuation [1]: 0 (0.0) n (%) | Subjects with any study drug-related TEAE [1]: 1 (11.1) n (%) | Subjects with any study drug-related TEAE by maximum severity: Mild [1]: 1 (11.1) n (%) | Subjects with any study drug-related TEAE by maximum severity: Moderate [1]: 0 (0.0) n (%) | Subjects with any study drug-related TEAE by maximum severity: Severe [1]: 0 (0.0) n (%) | Subjects with any study drug-related TEAE leading to discontinuation [1]: 0 (0.0) n (%) | Subjects with any study drug-related treatment-emergent SAE [1]: 0 (0.0) n (%) | Subjects with any treatment-emergent SAE [1]: 0 (0.0) n (%) | Any TEAE, % of subjects (1.5 mg NS, N = 9): (11.1) % | Any TEAE, number of subjects (1.5 mg NS, N = 9): 1 | Related TEAE, % of subjects (1.5 mg NS, N = 9): (0) % | Related TEAE, number of subjects (1.5 mg NS, N = 9): 0 | Subjects with any AE [2]: 1 (11.1) n (%) | Subjects with any TEAE [2]: 1 (11.1) n (%) | Subjects with any TEAE by maximum severity: Mild [2]: 1 (11.1) n (%) | Subjects with any TEAE by maximum severity: Moderate [2]: 0 (0.0) n (%) | Subjects with any TEAE by maximum severity: Severe [2]: 0 (0.0) n (%) | Subjects with any TEAE leading to death [2]: 0 (0.0) n (%) | Subjects with any TEAE leading to discontinuation [2]: 0 (0.0) n (%) | Subjects with any study drug-related TEAE [2]: 0 (0.0) n (%) | Subjects with any study drug-related TEAE by maximum severity: Mild [2]: 0 (0.0) n (%) | Subjects with any study drug-related TEAE by maximum severity: Moderate [2]: 0 (0.0) n (%) | Subjects with any study drug-related TEAE by maximum severity: Severe [2]: 0 (0.0) n (%) | Subjects with any study drug-related TEAE leading to discontinuation [2]: 0 (0.0) n (%) | Subjects with any study drug-related treatment-emergent SAE [2]: 0 (0.0) n (%) | Subjects with any treatment-emergent SAE [2]: 0 (0.0) n (%) | Any TEAE, % of subjects (2.5 mg LS, N = 9): (33.3) % | Any TEAE, number of subjects (2.5 mg LS, N = 9): 3 | Related TEAE, % of subjects (2.5 mg LS, N = 9): (22.2) % | Related TEAE, number of subjects (2.5 mg LS, N = 9): 2 | Any TEAE, % of subjects (2.5 mg NS, N = 6): (50) % | Any TEAE, number of subjects (2.5 mg NS, N = 6): 3 | Related TEAE, % of subjects (2.5 mg NS, N = 6): (33.3) % | Related TEAE, number of subjects (2.5 mg NS, N = 6): 2 | Subjects with any AE (2.5 mg, low salt diet, N = 9): 3 (33.3) n (%) | Subjects with any TEAE (2.5 mg, low salt diet, N = 9): 3 (33.3) n (%) | Subjects with any TEAE by maximum severity: Mild (2.5 mg, low salt diet, N = 9): 3 (33.3) n (%) | Subjects with any TEAE by maximum severity: Moderate (2.5 mg, low salt diet, N = 9): 0 (0.0) n (%) | Subjects with any TEAE by maximum severity: Severe (2.5 mg, low salt diet, N = 9): 0 (0.0) n (%) | Subjects with any TEAE leading to death (2.5 mg, low salt diet, N = 9): 0 (0.0) n (%) | Subjects with any TEAE leading to discontinuation (2.5 mg, low salt diet, N = 9): 0 (0.0) n (%) | Subjects with any study drug-related TEAE (2.5 mg, low salt diet, N = 9): 2 (22.2) n (%) | Subjects with any study drug-related TEAE by maximum severity: Mild (2.5 mg, low salt diet, N = 9): 2 (22.2) n (%) | Subjects with any study drug-related TEAE by maximum severity: Moderate (2.5 mg, low salt diet, N = 9): 0 (0.0) n (%) | Subjects with any study drug-related TEAE by maximum severity: Severe (2.5 mg, low salt diet, N = 9): 0 (0.0) n (%) | Subjects with any study drug-related TEAE leading to discontinuation (2.5 mg, low salt diet, N = 9): 0 (0.0) n (%) | Subjects with any study drug-related treatment-emergent SAE (2.5 mg, low salt diet, N = 9): 0 (0.0) n (%) | Subjects with any treatment-emergent SAE (2.5 mg, low salt diet, N = 9): 0 (0.0) n (%) | Subjects with any AE [3]: 3 (50.0) n (%) | Subjects with any TEAE [3]: 3 (50.0) n (%) | Subjects with any TEAE by maximum severity: Mild [3]: 3 (50.0) n (%) | Subjects with any TEAE by maximum severity: Moderate [3]: 0 (0.0) n (%) | Subjects with any TEAE by maximum severity: Severe [3]: 0 (0.0) n (%) | Subjects with any TEAE leading to death [3]: 0 (0.0) n (%) | Subjects with any TEAE leading to discontinuation [3]: 0 (0.0) n (%) | Subjects with any study drug-related TEAE [3]: 2 (33.3) n (%) | Subjects with any study drug-related TEAE by maximum severity: Mild [3]: 2 (33.3) n (%) | Subjects with any study drug-related TEAE by maximum severity: Moderate [3]: 0 (0.0) n (%) | Subjects with any study drug-related TEAE by maximum severity: Severe [3]: 0 (0.0) n (%) | Subjects with any study drug-related TEAE leading to discontinuation [3]: 0 (0.0) n (%) | Subjects with any study drug-related treatment-emergent SAE [3]: 0 (0.0) n (%) | Subjects with any treatment-emergent SAE [3]: 0 (0.0) n (%) | Any TEAE, % of subjects (5 mg LS, N = 9): (33.3) % | Any TEAE, number of subjects (5 mg LS, N = 9): 3 | Related TEAE, % of subjects (5 mg LS, N = 9): (11.1) % | Related TEAE, number of subjects (5 mg LS, N = 9): 1 | Subjects with any AE (5.0 mg, low salt diet, N = 9): 3 (33.3) n (%) | Subjects with any TEAE (5.0 mg, low salt diet, N = 9): 3 (33.3) n (%) | Subjects with any TEAE by maximum severity: Mild (5.0 mg, low salt diet, N = 9): 3 (33.3) n (%) | Subjects with any TEAE by maximum severity: Moderate (5.0 mg, low salt diet, N = 9): 0 (0.0) n (%) | Subjects with any TEAE by maximum severity: Severe (5.0 mg, low salt diet, N = 9): 0 (0.0) n (%) | Subjects with any TEAE leading to death (5.0 mg, low salt diet, N = 9): 0 (0.0) n (%) | Subjects with any TEAE leading to discontinuation (5.0 mg, low salt diet, N = 9): 0 (0.0) n (%) | Subjects with any study drug-related TEAE (5.0 mg, low salt diet, N = 9): 1 (11.1) n (%) | Subjects with any study drug-related TEAE by maximum severity: Mild (5.0 mg, low salt diet, N = 9): 1 (11.1) n (%) | Subjects with any study drug-related TEAE by maximum severity: Moderate (5.0 mg, low salt diet, N = 9): 0 (0.0) n (%) | Subjects with any study drug-related TEAE by maximum severity: Severe (5.0 mg, low salt diet, N = 9): 0 (0.0) n (%) | Subjects with any study drug-related TEAE leading to discontinuation (5.0 mg, low salt diet, N = 9): 0 (0.0) n (%) | Subjects with any study drug-related treatment-emergent SAE (5.0 mg, low salt diet, N = 9): 0 (0.0) n (%) | Subjects with any treatment-emergent SAE (5.0 mg, low salt diet, N = 9): 0 (0.0) n (%) | Subjects with any AE (Overall (R)-compound 1, N = 42): 11 (26.2) n (%) | Subjects with any TEAE (Overall (R)-compound 1, N = 42): 11 (26.2) n (%) | Subjects with any TEAE by maximum severity: Mild (Overall (R)-compound 1, N = 42): 11 (26.2) n (%) | Subjects with any TEAE by maximum severity: Moderate (Overall (R)-compound 1, N = 42): 0 (0.0) n (%) | Subjects with any TEAE by maximum severity: Severe (Overall (R)-compound 1, N = 42): 0 (0.0) n (%) | Subjects with any TEAE leading to death (Overall (R)-compound 1, N = 42): 0 (0.0) n (%) | Subjects with any TEAE leading to discontinuation (Overall (R)-compound 1, N = 42): 0 (0.0) n (%) | Subjects with any study drug-related TEAE (Overall (R)-compound 1, N = 42): 6 (14.3) n (%) | Subjects with any study drug-related TEAE by maximum severity: Mild (Overall (R)-compound 1, N = 42): 6 (14.3) n (%) | Subjects with any study drug-related TEAE by maximum severity: Moderate (Overall (R)-compound 1, N = 42): 0 (0.0) n (%) | Subjects with any study drug-related TEAE by maximum severity: Severe (Overall (R)-compound 1, N = 42): 0 (0.0) n (%) | Subjects with any study drug-related TEAE leading to discontinuation (Overall (R)-compound 1, N = 42): 0 (0.0) n (%) | Subjects with any study drug-related treatment-emergent SAE (Overall (R)-compound 1, N = 42): 0 (0.0) n (%) | Subjects with any treatment-emergent SAE (Overall (R)-compound 1, N = 42): 0 (0.0) n (%) | Any TEAE, % of subjects (Total (R)-Compound 1, N = 42): (26.2) % | Any TEAE, number of subjects (Total (R)-Compound 1, N = 42): 11 | Related TEAE, % of subjects (Total (R)-Compound 1, N = 42): (14.3) % | Related TEAE, number of subjects (Total (R)-Compound 1, N = 42): 6 | decrease in mean BW from baseline [4]: ≤ 2 kg | decrease in mean body mass index from baseline [4]: < 0.65 kg/m^2 | subjects experiencing a TEAE [5]: 11 (26.2%) | subjects experiencing a TEAE considered related to study drug [5]: 6 (14.3%) | subjects experiencing dizziness [5]: 2 (4.8%) | subjects experiencing headache [5]: 4 (9.5%) | subjects experiencing postural dizziness [5]: 3 (7.1%) | BP as compared to placebo (healthy subjects): no clinically significant changes | all other TEAEs (presyncope, eye irritation, abdominal pain, constipation, viral infection, rhinitis, back pain, anxiety, dry throat, dysphonia), subjects each (human, in vivo, oral, 10 days): 1 subject | reduction in glomerular filtration rate (mild): < 15% | plasma sodium and potassium levels (multiple doses): Mild, dose-dependent decreases in plasma sodium levels and increases in plasma potassium levels | tolerability (healthy subjects): safe and well tolerated | tolerability (healthy subjects, listed as (R)-compound 1): safe and well tolerated | decrease in mean BMI from baseline (overall (R)-compound 1 group): −0.442 kg/m^2 | decrease in mean body weight from baseline (overall (R)-compound 1 group): -1.31 kg | QTcF (up to 5 mg QD for 10 days): no meaningful changes
